In patent publication US9249129B2, “Morpholino substituted urea derivatives as mTOR inhibitors” (CELLZOME LIMITED, priority 2010, dated 2016):
pIC50: −log10 of the molar value.

What was measured:
Assay in all cases: kinobeads assay with mass spectrometry detection of kinases (kinase selectivity profile)
Format in all cases: binding
[1] = target: T1, kinases (kinome) (Homo sapiens, UniProt Q05397); conditions: FAK (TK), IPI00413961
T1 construct: determined in kinobeads assays with mass spectrometry detection of kinases as described previously; endogenous in cells; host or cells: cell lysate
T1 sequence (Q05397 whole entry): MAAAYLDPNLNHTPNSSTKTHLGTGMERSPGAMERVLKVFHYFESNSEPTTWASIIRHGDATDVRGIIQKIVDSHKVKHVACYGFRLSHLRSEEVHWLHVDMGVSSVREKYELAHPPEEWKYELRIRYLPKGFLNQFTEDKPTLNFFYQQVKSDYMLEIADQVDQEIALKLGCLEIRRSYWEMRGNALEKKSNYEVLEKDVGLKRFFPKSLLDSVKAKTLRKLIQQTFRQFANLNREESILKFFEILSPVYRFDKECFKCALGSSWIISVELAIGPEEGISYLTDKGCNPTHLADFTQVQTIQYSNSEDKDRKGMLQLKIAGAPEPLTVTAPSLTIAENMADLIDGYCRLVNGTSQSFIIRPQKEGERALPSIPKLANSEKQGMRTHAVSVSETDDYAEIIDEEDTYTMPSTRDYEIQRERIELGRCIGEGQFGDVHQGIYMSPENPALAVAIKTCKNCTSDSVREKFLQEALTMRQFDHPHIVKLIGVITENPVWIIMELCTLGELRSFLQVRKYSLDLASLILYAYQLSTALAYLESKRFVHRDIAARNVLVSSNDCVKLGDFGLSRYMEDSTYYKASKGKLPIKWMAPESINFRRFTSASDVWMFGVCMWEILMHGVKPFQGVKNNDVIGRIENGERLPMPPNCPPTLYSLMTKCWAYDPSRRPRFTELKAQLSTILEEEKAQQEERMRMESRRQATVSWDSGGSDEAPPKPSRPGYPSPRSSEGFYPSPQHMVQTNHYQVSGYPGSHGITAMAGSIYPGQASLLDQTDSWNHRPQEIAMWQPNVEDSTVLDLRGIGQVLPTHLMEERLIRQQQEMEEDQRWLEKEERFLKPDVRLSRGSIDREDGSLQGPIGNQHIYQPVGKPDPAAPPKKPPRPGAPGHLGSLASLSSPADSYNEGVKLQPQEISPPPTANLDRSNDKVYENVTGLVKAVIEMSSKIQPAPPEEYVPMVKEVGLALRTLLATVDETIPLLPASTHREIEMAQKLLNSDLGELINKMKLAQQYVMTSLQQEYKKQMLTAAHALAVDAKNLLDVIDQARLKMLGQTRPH
Description: (§1) The protein kinase complement of the human genome (the kinome) was described previously (Manning et al., 2002. Science 298(5600):1912-1934). Sequence accession numbers are defined by the International Protein Index (IPI) (Kersey et al., 2004. Proteomics 4(7):1985-1988).

[2] = target: T2, kinases (kinome) (Homo sapiens, UniProt P23458); conditions: JAK1 (TK), IPI00784013
T2 construct: determined in kinobeads assays with mass spectrometry detection of kinases as described previously; endogenous in cells; host or cells: cell lysate
T2 sequence (P23458 whole entry): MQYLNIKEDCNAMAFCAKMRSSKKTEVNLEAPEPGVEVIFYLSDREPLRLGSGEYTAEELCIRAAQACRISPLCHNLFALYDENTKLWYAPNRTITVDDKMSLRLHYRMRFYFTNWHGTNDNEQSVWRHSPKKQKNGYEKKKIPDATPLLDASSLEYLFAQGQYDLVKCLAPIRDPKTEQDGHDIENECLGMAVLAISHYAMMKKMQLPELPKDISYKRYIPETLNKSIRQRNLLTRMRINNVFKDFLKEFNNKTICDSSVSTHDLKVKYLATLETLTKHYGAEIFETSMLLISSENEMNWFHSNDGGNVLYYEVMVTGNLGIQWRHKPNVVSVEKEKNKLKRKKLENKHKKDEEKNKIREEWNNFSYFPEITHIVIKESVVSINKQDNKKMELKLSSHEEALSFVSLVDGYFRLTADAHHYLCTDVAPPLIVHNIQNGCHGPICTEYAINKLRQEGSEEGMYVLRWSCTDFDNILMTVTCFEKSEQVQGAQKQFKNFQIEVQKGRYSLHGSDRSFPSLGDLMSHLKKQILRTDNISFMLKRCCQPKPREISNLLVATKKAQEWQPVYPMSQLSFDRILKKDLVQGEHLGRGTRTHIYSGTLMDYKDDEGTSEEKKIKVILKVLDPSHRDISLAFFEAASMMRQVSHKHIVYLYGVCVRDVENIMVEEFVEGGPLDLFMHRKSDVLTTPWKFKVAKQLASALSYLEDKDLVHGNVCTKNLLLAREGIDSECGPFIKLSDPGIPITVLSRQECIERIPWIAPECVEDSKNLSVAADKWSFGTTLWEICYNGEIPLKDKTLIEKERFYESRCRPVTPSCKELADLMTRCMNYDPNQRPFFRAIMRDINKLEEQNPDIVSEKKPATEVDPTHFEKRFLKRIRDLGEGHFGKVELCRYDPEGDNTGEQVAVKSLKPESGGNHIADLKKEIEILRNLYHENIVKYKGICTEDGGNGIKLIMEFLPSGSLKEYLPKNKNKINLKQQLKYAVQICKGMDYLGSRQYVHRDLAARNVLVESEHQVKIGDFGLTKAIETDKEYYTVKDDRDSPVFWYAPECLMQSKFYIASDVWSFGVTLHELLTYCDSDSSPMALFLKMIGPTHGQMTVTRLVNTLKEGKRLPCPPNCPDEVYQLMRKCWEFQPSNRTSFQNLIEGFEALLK
Description: as §1

[3] = target: T3, kinases (kinome) (Homo sapiens, UniProt P07947); conditions: YES (TK), IPI00013981
T3 construct: determined in kinobeads assays with mass spectrometry detection of kinases as described previously; endogenous in cells; host or cells: cell lysate
T3 sequence (P07947 whole entry): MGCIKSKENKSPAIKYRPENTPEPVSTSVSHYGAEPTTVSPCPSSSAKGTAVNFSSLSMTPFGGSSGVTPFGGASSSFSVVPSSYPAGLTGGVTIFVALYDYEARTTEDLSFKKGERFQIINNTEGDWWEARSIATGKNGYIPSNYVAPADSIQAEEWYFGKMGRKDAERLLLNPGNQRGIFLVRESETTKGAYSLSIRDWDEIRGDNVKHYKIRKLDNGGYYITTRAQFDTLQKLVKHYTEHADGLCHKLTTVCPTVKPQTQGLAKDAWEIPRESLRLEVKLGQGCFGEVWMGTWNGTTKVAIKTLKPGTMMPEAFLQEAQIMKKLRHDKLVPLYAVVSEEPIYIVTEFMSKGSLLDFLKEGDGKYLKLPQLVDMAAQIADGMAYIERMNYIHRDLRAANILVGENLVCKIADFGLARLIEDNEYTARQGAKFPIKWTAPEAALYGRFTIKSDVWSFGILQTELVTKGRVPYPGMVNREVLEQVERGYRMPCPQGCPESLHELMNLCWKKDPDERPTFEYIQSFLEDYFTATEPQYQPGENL
Description: as §1

[4] = target: T4, kinases (kinome) (Homo sapiens, UniProt Q2M2I8); conditions: AAK1 (Other), IPI00916402
T4 construct: determined in kinobeads assays with mass spectrometry detection of kinases as described previously; endogenous in cells; host or cells: cell lysate
Description: as §1

[5] = target: T5, kinases (kinome) (Homo sapiens, UniProt Q00534); conditions: CDK6 (CMGC), IPI00023529
T5 construct: determined in kinobeads assays with mass spectrometry detection of kinases as described previously; endogenous in cells; host or cells: cell lysate
Description: as §1

[6] = target: T6, kinases (kinome) (Homo sapiens, UniProt P05771); conditions: PKCb (AGC), IPI00219628
T6 construct: determined in kinobeads assays with mass spectrometry detection of kinases as described previously; endogenous in cells; host or cells: cell lysate
Description: as §1

[7] = target: T7, kinases (kinome) (Homo sapiens, UniProt Q16512); conditions: PKN1 (AGC), IPI00412672
T7 construct: determined in kinobeads assays with mass spectrometry detection of kinases as described previously; endogenous in cells; host or cells: cell lysate
T7 sequence (Q16512 whole entry): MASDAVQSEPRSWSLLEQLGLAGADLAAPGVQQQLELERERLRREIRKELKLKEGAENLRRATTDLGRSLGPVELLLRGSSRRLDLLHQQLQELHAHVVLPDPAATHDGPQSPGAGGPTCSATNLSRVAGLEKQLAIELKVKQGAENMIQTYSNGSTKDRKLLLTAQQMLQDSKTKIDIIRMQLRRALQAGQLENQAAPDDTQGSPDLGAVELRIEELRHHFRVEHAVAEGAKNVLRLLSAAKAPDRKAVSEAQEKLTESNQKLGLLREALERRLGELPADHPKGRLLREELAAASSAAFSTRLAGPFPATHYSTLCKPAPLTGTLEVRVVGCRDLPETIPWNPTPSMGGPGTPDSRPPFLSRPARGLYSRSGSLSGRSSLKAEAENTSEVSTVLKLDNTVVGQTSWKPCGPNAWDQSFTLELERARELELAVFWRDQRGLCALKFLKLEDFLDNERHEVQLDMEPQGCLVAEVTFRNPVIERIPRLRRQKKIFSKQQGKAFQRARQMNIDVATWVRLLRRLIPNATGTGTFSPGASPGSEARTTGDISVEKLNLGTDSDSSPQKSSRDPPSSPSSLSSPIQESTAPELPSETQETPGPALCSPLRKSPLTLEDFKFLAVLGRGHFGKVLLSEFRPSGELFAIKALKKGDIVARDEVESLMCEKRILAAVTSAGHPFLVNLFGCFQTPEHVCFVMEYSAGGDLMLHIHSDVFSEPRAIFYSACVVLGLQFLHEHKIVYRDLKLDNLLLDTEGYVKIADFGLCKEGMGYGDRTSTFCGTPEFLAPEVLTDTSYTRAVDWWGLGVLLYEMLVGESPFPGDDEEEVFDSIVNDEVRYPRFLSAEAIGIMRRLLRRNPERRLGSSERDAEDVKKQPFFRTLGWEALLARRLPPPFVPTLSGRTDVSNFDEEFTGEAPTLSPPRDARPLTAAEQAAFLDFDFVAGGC
Description: as §1

[8] = target: T8, kinases (kinome) (Homo sapiens, UniProt P48730); conditions: CK1d (CK1), IPI00011102
T8 construct: determined in kinobeads assays with mass spectrometry detection of kinases as described previously; endogenous in cells; host or cells: cell lysate
T8 sequence (P48730 whole entry): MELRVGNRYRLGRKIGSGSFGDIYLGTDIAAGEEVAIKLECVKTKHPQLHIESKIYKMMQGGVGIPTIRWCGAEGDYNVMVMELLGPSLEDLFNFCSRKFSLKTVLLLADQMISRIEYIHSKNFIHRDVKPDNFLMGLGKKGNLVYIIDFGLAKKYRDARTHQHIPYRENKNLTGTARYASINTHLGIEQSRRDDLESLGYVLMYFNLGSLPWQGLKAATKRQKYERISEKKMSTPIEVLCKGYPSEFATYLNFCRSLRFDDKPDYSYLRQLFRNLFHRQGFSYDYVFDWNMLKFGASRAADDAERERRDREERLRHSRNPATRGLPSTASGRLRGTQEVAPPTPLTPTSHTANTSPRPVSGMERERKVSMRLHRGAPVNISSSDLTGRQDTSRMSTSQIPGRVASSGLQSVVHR
Description: as §1

[9] = target: kinases (kinome) (Homo sapiens, UniProt Q15418); conditions: RSK3 (AGC), IPI00477982
Description: as §1

[10] = target: T9, kinases (kinome) (Homo sapiens, UniProt Q9Y2U5); conditions: MAP3K2 (STE), IPI00513803
T9 construct: determined in kinobeads assays with mass spectrometry detection of kinases as described previously; endogenous in cells; host or cells: cell lysate
T9 sequence (Q9Y2U5 1-619): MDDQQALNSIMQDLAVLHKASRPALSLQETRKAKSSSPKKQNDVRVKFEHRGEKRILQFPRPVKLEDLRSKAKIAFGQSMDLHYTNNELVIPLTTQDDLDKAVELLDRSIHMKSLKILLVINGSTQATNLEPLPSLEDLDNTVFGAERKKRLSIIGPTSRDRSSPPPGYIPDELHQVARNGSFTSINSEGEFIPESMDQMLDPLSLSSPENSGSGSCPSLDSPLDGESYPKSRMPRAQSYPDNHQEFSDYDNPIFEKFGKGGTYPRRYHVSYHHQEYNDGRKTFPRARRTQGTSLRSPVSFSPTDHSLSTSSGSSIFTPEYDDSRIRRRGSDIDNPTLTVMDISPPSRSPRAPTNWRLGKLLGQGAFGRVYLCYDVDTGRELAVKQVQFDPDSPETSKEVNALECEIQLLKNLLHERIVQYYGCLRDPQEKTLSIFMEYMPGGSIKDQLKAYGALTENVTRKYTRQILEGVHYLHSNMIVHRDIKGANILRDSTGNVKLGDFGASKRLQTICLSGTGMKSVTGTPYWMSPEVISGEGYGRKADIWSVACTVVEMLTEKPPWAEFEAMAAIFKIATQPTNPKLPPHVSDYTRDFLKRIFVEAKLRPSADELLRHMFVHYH
Description: as §1

[11] = target: T10, kinases (kinome) (Homo sapiens, UniProt P09769); conditions: FGR (TK), IPI00016871
T10 construct: determined in kinobeads assays with mass spectrometry detection of kinases as described previously; endogenous in cells; host or cells: cell lysate
Description: as §1

[12] = target: T11, kinases (kinome) (Homo sapiens, UniProt Q9H2K8); conditions: TAO3 (STE), IPI00410485
T11 construct: determined in kinobeads assays with mass spectrometry detection of kinases as described previously; endogenous in cells; host or cells: cell lysate
T11 sequence (Q9H2K8 1-898): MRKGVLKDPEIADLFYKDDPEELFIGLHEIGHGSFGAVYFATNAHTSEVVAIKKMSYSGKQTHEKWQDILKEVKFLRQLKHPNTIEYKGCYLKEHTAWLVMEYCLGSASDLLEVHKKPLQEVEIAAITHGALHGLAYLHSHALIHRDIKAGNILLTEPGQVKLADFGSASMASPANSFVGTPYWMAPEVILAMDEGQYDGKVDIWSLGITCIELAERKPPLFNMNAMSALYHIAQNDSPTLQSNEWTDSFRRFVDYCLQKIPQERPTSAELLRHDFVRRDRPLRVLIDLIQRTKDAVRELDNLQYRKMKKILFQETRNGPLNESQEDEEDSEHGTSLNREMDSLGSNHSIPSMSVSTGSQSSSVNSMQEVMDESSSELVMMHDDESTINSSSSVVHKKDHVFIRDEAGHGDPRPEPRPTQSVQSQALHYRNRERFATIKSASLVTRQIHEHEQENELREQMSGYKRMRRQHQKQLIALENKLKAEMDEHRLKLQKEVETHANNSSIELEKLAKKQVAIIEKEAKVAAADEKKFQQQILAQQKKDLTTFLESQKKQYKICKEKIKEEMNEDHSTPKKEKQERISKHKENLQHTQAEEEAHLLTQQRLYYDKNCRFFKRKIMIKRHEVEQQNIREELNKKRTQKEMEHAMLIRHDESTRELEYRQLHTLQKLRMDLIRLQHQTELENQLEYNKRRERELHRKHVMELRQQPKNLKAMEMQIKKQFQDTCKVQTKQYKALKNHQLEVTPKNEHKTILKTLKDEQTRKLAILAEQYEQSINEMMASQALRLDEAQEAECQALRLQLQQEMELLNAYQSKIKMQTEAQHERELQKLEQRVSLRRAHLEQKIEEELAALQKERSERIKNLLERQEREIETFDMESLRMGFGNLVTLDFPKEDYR
Description: as §1

[13] = target: T12, kinases (kinome) (Homo sapiens, UniProt Q9Y4K4); conditions: KHS1 (STE), IPI00294842
T12 construct: determined in kinobeads assays with mass spectrometry detection of kinases as described previously; endogenous in cells; host or cells: cell lysate
T12 sequence (Q9Y4K4 whole entry): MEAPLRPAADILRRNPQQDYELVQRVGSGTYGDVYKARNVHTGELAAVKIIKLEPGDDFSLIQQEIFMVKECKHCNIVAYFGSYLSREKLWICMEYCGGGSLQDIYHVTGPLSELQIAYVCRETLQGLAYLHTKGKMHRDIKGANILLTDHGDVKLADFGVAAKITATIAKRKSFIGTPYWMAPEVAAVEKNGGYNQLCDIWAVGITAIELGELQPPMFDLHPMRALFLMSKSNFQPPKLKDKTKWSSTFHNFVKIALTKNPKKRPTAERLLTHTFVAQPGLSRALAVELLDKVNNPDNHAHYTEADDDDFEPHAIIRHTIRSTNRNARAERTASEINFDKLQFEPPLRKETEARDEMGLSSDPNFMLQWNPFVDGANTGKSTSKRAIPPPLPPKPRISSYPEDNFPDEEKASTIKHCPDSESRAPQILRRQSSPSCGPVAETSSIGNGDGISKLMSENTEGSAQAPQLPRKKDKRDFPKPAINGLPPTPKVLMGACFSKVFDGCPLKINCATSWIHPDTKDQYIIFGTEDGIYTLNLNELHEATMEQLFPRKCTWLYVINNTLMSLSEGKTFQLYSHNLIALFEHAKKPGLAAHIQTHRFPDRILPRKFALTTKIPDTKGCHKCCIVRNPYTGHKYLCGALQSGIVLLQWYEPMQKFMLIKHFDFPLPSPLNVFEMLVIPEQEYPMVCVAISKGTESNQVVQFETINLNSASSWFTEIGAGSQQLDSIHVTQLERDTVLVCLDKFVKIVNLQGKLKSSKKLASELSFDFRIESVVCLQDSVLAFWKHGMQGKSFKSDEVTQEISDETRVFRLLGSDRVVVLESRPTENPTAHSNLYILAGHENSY
Description: as §1

[14] = target: T13, kinases (kinome) (Homo sapiens, UniProt Q16539); conditions: p38a (CMGC), IPI00221141
T13 construct: determined in kinobeads assays with mass spectrometry detection of kinases as described previously; endogenous in cells; host or cells: cell lysate
Description: as §1

Measured: pIC50

C[C@H]1COCCN1c1nc(-c2ccc(NC(=O)NC3CC3)cc2)cc(-c2ccccc2S(C)(=O)=O)n1 [Example 4, (S)-1-cyclopropyl-3-(4-(2-(3-methylmorpholino)-6-(2-(methylsulfonyl)phenyl)pyrimidin-4-yl)phenyl)urea]
< 5.00: all assays above

C[C@H]1COCCN1c1cc(-c2ccccc2S(C)(=O)=O)nc(-c2ccc(NC(=O)NC3CC3)cc2)n1 [Example 6, (S)-1-cyclopropyl-3-(4-(4-(3-methylmorpholino)-6-(2-(methylsulfonyl)phenyl)pyrimidin-2-yl)phenyl)urea]
< 5.00: all assays above

CCNC(=O)Nc1ccc(-c2cc(-c3ccccc3C#N)nc(N3CCOC[C@@H]3C)n2)cc1 [Example 8, (S)-1-(4-(6-(2-cyanophenyl)-2-(3-methylmorpholino)pyrimidin-4-yl)phenyl)-3-ethylurea]
not listed: [5]
< 5.00: all other assays above

C[C@H]1COCCN1c1nc(-c2ccc(NC(=O)NC3CC3)cc2)cc(-c2cc(F)ccc2S(C)(=O)=O)n1 [Example 40, (S)-1-cyclopropyl-3-(4-(6-(5-fluoro-2-(methylsulfonyl)phenyl)-2-(3-methylmorpholino)pyrimidin-4-yl)phenyl)urea]
< 5.00: all assays above

C[C@H]1COCCN1c1cc(-c2ccccn2)nc(-c2ccc(NC(=O)NCCO)cc2)n1 [Example 43, (S)-1-(2-hydroxyethyl)-3-(4-(4-(3-methylmorpholino)-6-(pyridin-2-yl)pyrimidin-2-yl)phenyl)urea]
< 5.00: all assays above

C[C@H]1COCCN1c1nc(-c2ccc(NC(=O)NC3CC3)cc2)cc(-c2cccnc2S(C)(=O)=O)n1 [Example 46, (S)-1-cyclopropyl-3-(4-(2-(3-methylmorpholino)-6-(2-(methylsulfonyl)pyridin-3-yl)pyrimidin-4-yl)phenyl)urea]
< 5.00: all assays above

C[C@H]1COCCN1c1nc(-c2ccc(NC(=O)N[C@H]3CCC[C@@H]3O)cc2)cc(-c2cc(F)ccc2S(C)(=O)=O)n1 [Example 76, 1-(4-(6-(5-fluoro-2-(methylsulfonyl)phenyl)-2-((S)-3-methylmorpholino)pyrimidin-4-yl)phenyl)-3-((1S,2S)-2-hydroxycyclopentyl)urea]
not listed: [8]
< 5.00: all other assays above
